Where two headings read alike, the source gives them in different places.
What was measured:
Type in all cases: in vivo
[1] = system: Echinochloa crus-galli (ECHCG); assay: Post-emergence herbicidal action against ECHCG
Outline: (§1)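 Greenhouse plants sprayed at the one-leaf stage, 2–3 weeks after sowing, with WP or EC formulations plus 0.5% additive at 600 l/ha water. Activity rated visually after about 3 weeks versus untreated controls (100% = dead, 0% = like control), at 320 g/ha or lower.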

[2] = system: Pharbitis purpurea (PHBPU); assay: Post-emergence herbicidal action against PHBPU
Outline: as §1

[3] = system: Matricaria inodora (MATIN); assay: Pre-emergence herbicidal action against MATIN; settings: dosage 320 g/ha
Outline: (§2)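 Read-out is visual percent damage relative to untreated pots, with 100% meaning dead plants and 0% meaning no difference, assessed roughly three weeks after treatment. Compounds were applied pre-emergence to the covering soil at up to 320 g/ha.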

[4] = system: Oryza sativa (ORYSA); settings: pre-emergence, 80 g/ha, crop plant compatibility, in comparison to untreated controls
Outline: (§3)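 Scoring: visual, % of untreated control, about 3 weeks after a pre-emergence application to the soil surface. Application used WP or EC formulations diluted in water with 0.5% additive at 600 l/ha; dosage levels are marked by suffixes a, b and c.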

[5] = system: Zea mays (ZEAMX); settings: pre-emergence, 80 g/ha, crop plant compatibility, in comparison to untreated controls
Outline: as §3

[6] = system: Abutilon theophrasti (ABUTH); assay: Post-emergence herbicidal action against ABUTH; settings: 320 g/ha, visual rating about 3 weeks after treatment vs untreated controls (100% = plants have died, 0% = like control plants)
Outline: as §1

[7] = system: Alopecurus myosuroides (ALOMY); assay: Post-emergence herbicidal action against ALOMY; settings: visual rating about 3 weeks after treatment vs untreated controls (100% = plants have died, 0% = like control plants)
Outline: as §1

[8] = system: Viola tricolor (VIOTR); assay: Pre-emergence herbicidal action against VIOTR
Outline: as §2

[9] = system: Setaria viridis (SETVI); assay: Post-emergence herbicidal action against SETVI
Outline: as §1

[10] = system: Polygonum convolvulus (POLCO); assay: Post-emergence herbicidal action against POLCO; settings: dosage 320 g/ha
Outline: as §1

[11] = system: Alopecurus myosuroides (ALOMY); assay: Pre-emergence herbicidal action against ALOMY; settings: 320 g/ha; scored visually after about 3 weeks; 100% = plants have died
Outline: as §2

[12] = system: Verconica persica (VERPE); assay: Post-emergence herbicidal action against VERPE
Outline: as §1

[13] = system: Echinochloa crus-galli (ECHCG); assay: Pre-emergence herbicidal action against ECHCG; settings: dosage 320 g/ha
Outline: as §2

[14] = system: Amaranthus retroflexus (AMARE); assay: Post-emergence herbicidal action against AMARE
Outline: as §1

[15] = system: Oryza sativa (ORYSA); settings: crop plant compatibility
Outline: (§4)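 Foliar application at the one-leaf stage: WP/EC formulation, 0.5% additive, 600 l/ha water. Greenhouse-grown in sandy loam. Endpoint is visual % injury relative to untreated controls at about 3 weeks.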

[16] = system: Amaranthus retroflexus (AMARE); assay: Pre-emergence herbicidal action against AMARE; settings: visual scoring after about 3 weeks vs untreated controls
Outline: as §2

[17] = system: Setaria viridis (SETVI); assay: Pre-emergence herbicidal action against SETVI; settings: dosage 320 g/ha
Outline: as §2

[18] = system: Avena fatua (AVEFA); assay: Pre-emergence herbicidal action against AVEFA; settings: 320 g/ha, visual scoring after about 3 weeks vs untreated controls
Outline: as §2

[19] = system: Verconica persica (VERPE); assay: Pre-emergence herbicidal action against VERPE; settings: dosage 320 g/ha
Outline: as §2

[20] = system: Polygonum convolvulus (POLCO); assay: Pre-emergence herbicidal action against POLCO; settings: dosage 320 g/ha
Outline: as §2

[21] = system: Lolium rigidum (LOLRI); assay: Pre-emergence herbicidal action against LOLRI; settings: dosage 320 g/ha
Outline: as §2

[22] = system: Pharbitis purpurea (PHBPU); assay: Pre-emergence herbicidal action against PHBPU; settings: dosage 320 g/ha
Outline: as §2

[23] = system: Zea mays (ZEAMX)
Outline: as §4

[24] = system: Avena fatua (AVEFA); assay: Post-emergence herbicidal action against AVEFA; settings: 80 g/ha, visual rating about 3 weeks after treatment
Outline: as §1

[25] = 80 g/ha, effect in comparison to untreated controls

## CCOC(=O)CSc1nn(-c2ccccn2)c(-c2cncc(F)c2)c1I [Example I-152]
[1]; dosage 80 g/ha
  Post-emergence action against ECHCG in %: 80%
[1]; dosage 320 g/ha
  Post-emergence action against ECHCG in %: 80%
[2]; dosage 80 g/ha
  Post-emergence action against PHBPU in %: 80%
[2]; dosage 320 g/ha
  Post-emergence action against PHBPU in %: 90%
[3]
  Pre-emergence action against MATIN in %: 90%
[4]
  Pre-emergence action against ORYSA in %: 20%
[5]
  Pre-emergence action against ZEAMX in %: 10%
[6]
  Post-emergence action against ABUTH in %: 80%
[7]; 320 g/ha
  Post-emergence action against ALOMY in %: 80%
[8]; 320 g/ha, Viola tricolor
  Pre-emergence action against VIOTR in %: 90%
[8]; dosage 80 g/ha
  Pre-emergence action against VIOTR in %: 80%
[9]; dosage 80 g/ha
  Post-emergence action against SETVI in %: 80%
[9]; dosage 320 g/ha
  Post-emergence action against SETVI in %: 80%
[10]
  Post-emergence action against POLCO in %: 80%
[11]
  Pre-emergence action against ALOMY: 80%
[12]; 320 g/ha, VERPE
  Post-emergence action against VERPE in %: 80%
[13]
  Pre-emergence action against ECHCG in %: 90%
[14]; 80 g/ha, visual rating about 3 weeks after treatment vs untreated controls (100% = plants have died, 0% = like control plants)
  Post-emergence action against AMARE in %: 80%
[14]; 320 g/ha, visual rating about 3 weeks after treatment
  Post-emergence action against AMARE in %: 80%
[15]; [25]
  Post-emergence action against ORYSA in %: 0%
[16]; 320 g/ha
  Pre-emergence action against AMARE in %: 100%
[17]
  Pre-emergence action against SETVI in %: 90%

## CCOC(=O)COc1nn(-c2ncccc2Cl)c(-c2ccc(F)nc2)c1Br [Example I-23]
[1]; dosage 80 g/ha
  Post-emergence action against ECHCG in %: 80%
[18]
  Pre-emergence action against AVEFA in %: 90%
[3]
  Pre-emergence action against MATIN in %: 90%
[4]
  Pre-emergence action against ORYSA in %: 10%
[5]
  Pre-emergence action against ZEAMX in %: 10%
[7]; 80 g/ha
  Post-emergence action against ALOMY in %: 90%
[19]
  Pre-emergence action against VERPE in %: 90%
[8]; 320 g/ha, Viola tricolor
  Pre-emergence action against VIOTR in %: 100%
[8]; dosage 80 g/ha
  Pre-emergence action against VIOTR in %: 90%
[20]
  Pre-emergence action against POLCO in %: 90%
[21]
  Pre-emergence action against LOLRI in %: 100%
[11]
  Pre-emergence action against ALOMY: 100%
[22]
  Pre-emergence action against PHBPU in %: 90%
[12]; dosage 80 g/ha
  Post-emergence action against VERPE in %: 80%
[13]
  Pre-emergence action against ECHCG in %: 100%
[15]; 20 g/ha, effect vs untreated controls
  Post-emergence action against ORYSA in %: 0%
[15]; [25]
  Post-emergence action against ORYSA in %: 10%
[23]; 20 g/ha, ZEAMX, effect in comparison to untreated controls
  Post-emergence action against ZEAMX in % (crop plant compatibility): 0%
[23]; crop plant compatibility, 80 g/ha, effect vs untreated controls
  Post-emergence action against ZEAMX in %: 10%
[16]; 80 g/ha
  Pre-emergence action against AMARE in %: 90%
[16]; 320 g/ha
  Pre-emergence action against AMARE in %: 100%
[24]
  Post-emergence action against AVEFA in %: 90%
[17]
  Pre-emergence action against SETVI in %: 100%

From patent publication US20240041042A1, “1-(PYRIDYL)-5-AZINYLPYRAZOLE DERIVATIVES, AND THEIR USE FOR CONTROL OF UNDESIRED PLANT GROWTH” (Bayer Aktiengesellschaft, priority 2020, published 2024)
